Measured values taken from patent publication US12083230B2, “Nano-encapsulation using GRAS materials and applications thereof” (priority 2015, dated 2024).

Experiments:
[1] = cited from earlier work; for Log D: pH 7.4
[2] = Nanoparticle solution stability (milliQ H2O, PBS pH7.4, LB50, 2% bile salts, pH2.0) by DLS; type: physicochemical; settings: 10% wt. Nile Red loading
Procedure: Using a Zetasizer® Nano-ZS (Malvern instruments, Malvern, UK), dynamic light scattering (DLS) size measurements were performed on samples directly after FNP. Samples were diluted with ultra-pure water to avoid multiple scattering and analyzed at 25° C. using a detection angle of 173°. The reported size is the intensity-weighted average diameter as reported by the Malvern deconvolution software in Normal Mode analysis.
Initially, nanoparticle formulations were screened for stability at physiologic conditions (PBS) and conditions relevant to the in vitro model of V. cholera.
Various zein-to-casein ratios were produced to further investigate formulation stability in physiological environments relevant to oral delivery. Zein to casein ratios 4:1, 2:1, and 1:1 FIG. 17 in PBS, pH2.0, LB50 and 2% bile salts were investigated.

[3] = Nile Red encapsulation efficiency by UV-Vis of flow through after centrifugal filtration; type: physicochemical; settings: in Zn/CAS-VitE-Ac NPs, all stable formulations (0.2%-5 wt.%)
From the text: The utility of an encapsulation method depends on its encapsulation capacity and efficiency for various compounds. […] Nile Red was encapsulated at 0.2%-5 wt. %. At 0.1% wt. […] Encapsulation efficiency of Nile Red in Zn/CAS-VitE-Ac NPs was >98% for all stable formulations as determined by UV-Vis measurement of the flow through after centrifugal filtration (FIG. 7). With increasing Nile Red concentration in the core, the mean nanoparticle diameter increases (FIG. 6b). The florescence intensity is expected to increase with higher dye loading per particle. This can be seen in FIGS. 6(c) and 6(d) for two different wavelengths (500 nm excitation, 690 nm emission) and core loadings of 0.2-1% wt.

[4] = tested on: V. cholerae WN1102; test: Bioluminescence response of V. cholerae WN1102 (in vitro bioactivity assay); type: cell-based; settings: suggested by bioactivity of the flow through
From the text: FIG. 10(a) illustrates bioluminescence response of V. cholerae WN1102 supplemented with varying amounts of CAI-1-loaded Zein/CAS/VitE-Ac composite nanoparticles in PBS according to some embodiments described herein.
The bioactivity of blank Zein/CAS/VitEA particles was not detectable (FIG. 10b). […] The flow-through after centrifugal filtration can be regarded as a correlate for encapsulation efficiency of CAI-1. Bioactivity of the flow through was observed only at very high concentrations, approximately 1,000-10,000-fold higher than CAI-1 NPs.

[5] = tested on: V. cholera cultures; test: Growth of V. cholera cultures at 37° C.; type: cell-based; settings: during the time tested
Procedure: FIG. 10(b) illustrates growth of V. cholera cultures at 37° C. in response to addition of CAI-1-loaded Zein/CAS/VitE-Ac nanoparticles according to some embodiments described herein.
Changes in size and PDI could only be observed for the three-fold protein per amount of drug formulation (FIG. 9a). […] All parts of the formulation were necessary for the formation of nanoparticles with defined size. […] FNP of CAI-1 alone yielded a polydisperse emulsion, which then agglomerated and settled out over time.

What does the source list for `Nc1ccc(O)c(C(=O)O)c1` [Mesalazine]?
log P [1]: 0.46; Log D [1]: -1.98

Which results are given for `CCN(CC)c1ccc2nc3c4ccccc4c(=O)cc-3oc2c1` [Nile Red]?
NP behaviour after FNP at high dye loading [2]: immediate aggregation of NPs; Encapsulation efficiency of Nile Red [3]: > 98%; Log D [1]: 4.46

Which “Log D” value [1] does the source give for `CN(C)c1ccc(/N=N/c2ccccc2C(=O)O)cc1` [Methyl Red] here?
The value was 1.46.

With `c1cc2ccc3cccc4ccc(c1)c2c34` [Pyrene] as the compound, how does the “log P” value [1] read?
Its value is 5.17.

And the “Log D” value [1]?
Its value is 4.92.

With `CCCCCCCCCC(=O)[C@@H](O)CC` [CAI-1] as the compound, how does the “Encapsulation efficiency of CAI-1 during FNP” value [4] read?
The value was over 98%.

And the “Effect on the growth of cells” value [5]?
Its value is “no apparent effect”.

What about the “Log D” value [1] of the same compound?
The value was 4.30.

For `NC(=O)CC[C@@H]1NC(=O)[C@H](Cc2ccccc2)NC(=O)[C@H](Cc2ccc(O)cc2)NC(=O)CCSSC[C@@H](C(=O)N2CCC[C@H]2C(=O)N[C@H](CCCN=C(N)N)C(=O)NCC(N)=O)NC(=O)[C@H](CC(N)=O)NC1=O` [Desmopressin], which “Log D” value [1] is on record?
Its value is -7.34.
